Measurements published in patent publication US11477982B2, “2-amino-5-oxyalkyl-pyrimidine derivatives and their use for controlling undesired plant growth” (Bayer CropScience Aktiengesellschaft, priority 2017, dated 2022).

Experiments:
Assay type in all cases: in vivo
[1] = system: POLCO: Polygonum convolvulus; test: Pre-emergence herbicidal effect; settings: for Herbicidal efficacy against POLCO: Table 4a, dosage 20 g of a.i./ha
Text: (§1) 1. Pre-Emergence Herbicidal Effect and Crop Plant Compatibility
(§2) Seeds of monocotyledonous and dicotyledonous weed plants and crop plants are placed in plastic or wood fiber pots and covered with soil. The compounds of the invention, formulated in the form of wettable powders (WP) or as emulsion concentrates (EC), are then applied onto the surface of the covering soil as aqueous suspension or emulsion with addition of 0.5% additive at a water application rate of 600 l/ha (converted).
(§3) After the treatment, the pots are placed in a greenhouse and kept under good growth conditions for the trial plants. After about 3 weeks, the effect of the preparations is scored visually in comparison with untreated controls as percentages. For example, 100% activity=the plants have died, 0% activity=like control plants.

[2] = system: VERPE: Veronica persica; test: Pre-emergence herbicidal effect; settings: dosage 320 g/ha
Text: as §1, §2, §3

[3] = system: AMARE: Amaranthus retroflexus; test: Pre-emergence herbicidal effect; settings: for Herbicidal action against AMARE: pre-emergence; for Herbicidal efficacy against AMARE: Table 4b, pre-emergence as titled, dosage 80 g of a.i./ha
Text: as §1, §2, §3

[4] = system: VIOTR: Viola tricolor; test: Pre-emergence herbicidal effect; settings: dosage 320 g/ha
Text: as §1, §2, §3

[5] = system: MATIN: Matricaria inodora; test: Pre-emergence herbicidal effect; settings: for Herbicidal action against MATIN: pre-emergence, dosage 320 g/ha; for Herbicidal efficacy against MATIN: Table 4b, pre-emergence as titled, dosage 80 g of a.i./ha
Text: as §1, §2, §3

[6] = system: HORMU: Hordeum murinum; test: Pre-emergence herbicidal effect; settings: for Herbicidal efficacy against HORMU: Table 4b, pre-emergence as titled, dosage 80 g of a.i./ha; for Herbicidal action against HORMU: pre-emergence
Text: as §1, §2, §3

[7] = system: SETVI: Setaria viridis; test: Pre-emergence herbicidal effect
Text: as §1, §2, §3

[8] = system: ALOMY: Alopecurus myosuroides; test: Pre-emergence herbicidal effect
Text: as §1, §2, §3

[9] = system: ECHCG: Echinochloa crus-galli; test: Pre-emergence herbicidal effect
Text: as §1, §2, §3

[10] = system: STEME: Stellaria media; test: Pre-emergence herbicidal effect; settings: for Herbicidal efficacy against STEME: Table 4b, pre-emergence as titled, dosage 80 g of a.i./ha
Text: as §1, §2, §3

[11] = system: STEME: Stellaria media; test: Post-emergence herbicidal effect
Experimental: (§4) 2. Post-Emergence Herbicidal Effect and Crop Plant Compatibility
(§5) Seeds of monocotyledonous and dicotyledonous weeds and crop plants are placed in sandy loam in plastic or wood-fiber pots, covered with soil and cultivated in a greenhouse under controlled growth conditions, 2 to 3 weeks after sowing, the test plants are treated at the one-leaf stage. The compounds of the invention, formulated in the form of wettable powders (WP) or as emulsion concentrates (EC), are then sprayed onto the green parts of the plants as aqueous suspension or emulsion with addition of 0.5% additive at a water application rate of 600 l/ha (converted). After the test plants had been kept in the greenhouse under optimum growth conditions for about 3 weeks, the activity of the preparations is rated visually in comparison to untreated controls. For example, 100% activity=the plants have died, 0% activity=like control plants.

[12] = system: ABUTH: Abutilon theophrasti; test: Pre-emergence herbicidal effect; settings: for Herbicidal efficacy against ABUTH: Table 4a, dosage 20 g of a.i./ha
Text: as §1, §2, §3

[13] = system: LOLRI: Lolium rigidum; test: Pre-emergence herbicidal effect; settings: for Herbicidal efficacy against LOLRI: Table 4a, dosage 20 g of a.i./ha
Text: as §1, §2, §3

[14] = system: AVEFA: Avena fatua; test: Pre-emergence herbicidal effect
Text: as §1, §2, §3

[15] = system: PHBPU: Ipomoea purpurea; test: Pre-emergence herbicidal effect; settings: for Herbicidal efficacy against PHBPU: Table 4a, dosage 20 g of a.i./ha
Text: as §1, §2, §3

[16] = system: ABUTH: Abutilon theophrasti; test: Post-emergence herbicidal effect; settings: dosage 320 g/ha
Experimental: as §4, §5

[17] = system: AMARE: Amaranthus retroflexus; test: Post-emergence herbicidal effect; settings: dosage 320 g/ha
Experimental: as §4, §5

[18] = system: ECHCG: Echinochloa crus-galli; test: Post-emergence herbicidal effect; settings: dosage 320 g/ha
Experimental: as §4, §5

[19] = Table 4b, pre-emergence as titled, dosage 80 g of a.i./ha
[20] = Table 4a, pre-emergence, dosage 20 g of a.i./ha

Compound | Herbicidal action against POLCO ([1]; dosage 320 g/ha) [%] | Herbicidal action against VERPE [2] [%] | Herbicidal action against AMARE ([3]; dosage 320 g/ha) [%] | Herbicidal action against VIOTR [4] [%] | Herbicidal action against MATIN [5] [%] | further results
Cc1cccc2c1CCCC2Nc1ncc(C(C)(C)O)cn1 (racemic) [Example 1.41] | 100 | 100 | 100 | 100 | 100 | –
Cc1ccc2c(c1)[C@H](Nc1ncc(C(C)(O)Cc3ccccc3)cn1)[C@@H](C)C2 (stereo partly shown) [Example 1.26] | 100 | 100 | 100 | 100 | 100 | –
Cc1ccc2c(c1)[C@H](Nc1ncc(C(C)(O)CC(C)C)cn1)[C@@H](C)C2 (stereo partly shown) [Example 1.25] | 100 | 100 | 100 | 100 | 100 | –
Cc1cc2c(s1)CCCC2Nc1ncc(C(C)O)c(C)n1 (stereo not shown) [drawing 19, reference compound] | – | – | – | – | – | Herbicidal efficacy against HORMU [6]: 0; Herbicidal efficacy against SETVI [7, 19]: 20; Herbicidal efficacy against ALOMY [8, 19]: 10; Herbicidal efficacy against AMARE [3]: 30; Herbicidal efficacy against MATIN [5]: 20; Herbicidal efficacy against ECHCG [9, 19]: 40; Herbicidal efficacy against STEME [10]: 20
Cc1ccc2c(c1)[C@H](Nc1ncc([C@H](C)O)c(N)n1)[C@@H](C)C2 (racemic) [drawing 15, reference compound] | – | – | – | – | – | Herbicidal action against STEME ([11]; dosage 80 g/ha): 70%
Cc1ccc2c(c1)[C@H](Nc1ncc(C(C)(O)c3ccccc3)cn1)[C@@H](C)C2 (stereo partly shown) [Example 1.21] | 100 | 100 | 100 | 100 | 100 | –
CC(C)=CC(C)(O)c1cnc(N[C@H]2c3cc(C)ccc3C[C@@H]2C)nc1 (stereo partly shown) [Example 1.27] | 100 | 100 | 100 | 100 | 100 | –
Cc1nc(NC2c3ccccc3CC2C)ncc1C(C)(C)O (mixture of isomers) [Example 1.51] | 100 | 100 | 100 | 100 | 100 | Herbicidal action against ABUTH ([12]; dosage 320 g/ha): 100%; Herbicidal action against LOLRI ([13]; dosage 320 g/ha): 100%; Herbicidal action against HORMU ([6]; dosage 320 g/ha): 90%; Herbicidal action against SETVI ([7]; pre-emergence, dosage 320 g/ha): 100%; Herbicidal action against ALOMY ([8]; pre-emergence, dosage 320 g/ha): 100%; Herbicidal action against AVEFA ([14]; dosage 320 g/ha): 80%; Herbicidal action against ECHCG ([9]; pre-emergence, dosage 320 g/ha): 100%; Herbicidal action against PHBPU ([15]; dosage 320 g/ha): 100%; Herbicidal action against STEME ([10]; pre-emergence, dosage 320 g/ha): 100%
Cc1ccc2c(c1)[C@H](Nc1ncc(C(C)OCc3ccc(F)cc3)cn1)[C@@H](C)C2 (stereo partly shown) [Example 1.3] | 80 | 100 | 100 | 100 | 100 | –
Cc1cc2c(s1)CCCC2Nc1ncc(C(C)(C)O)c(C)n1 (stereo not shown) [drawing 18, reference compound] | – | – | – | – | – | Herbicidal efficacy against HORMU [6]: 10; Herbicidal efficacy against SETVI [7, 19]: 20; Herbicidal efficacy against ALOMY [8, 19]: 20; Herbicidal efficacy against AMARE [3]: 20; Herbicidal efficacy against MATIN [5]: 20; Herbicidal efficacy against ECHCG [9, 19]: 30; Herbicidal efficacy against STEME [10]: 30
Cc1ccc2c(c1)[C@H](Nc1ncc(C(C)O)c(C(C)F)n1)[C@@H](C)C2 (stereo partly shown) [Example 1.19] | 100 | 100 | 100 | 100 | 100 | –
Cc1cc2c(s1)CCCC2Nc1ncc(C(C)(C)O)c(C)n1 (stereo not shown) [drawing 16, reference compound] | – | – | – | – | – | Herbicidal efficacy against ABUTH [12]: 80; Herbicidal efficacy against POLCO [1]: 20; Herbicidal efficacy against LOLRI [13]: 0; Herbicidal efficacy against SETVI [7, 20]: 80; Herbicidal efficacy against ALOMY [8, 20]: 30; Herbicidal efficacy against ECHCG [9, 20]: 30; Herbicidal efficacy against PHBPU [15]: 0
Cc1ccc2c(c1)[C@H](Nc1ncc(C(C)(C)O)c(N)n1)[C@@H](C)C2 [drawing 4, reference compound] | – | – | – | – | – | Herbicidal action against ABUTH ([12]; dosage 80 g/ha): 20%; Herbicidal action against ABUTH ([12]; dosage 320 g/ha): 60%; Herbicidal action against LOLRI ([13]; dosage 80 g/ha): 40%; Herbicidal action against SETVI ([7]; pre-emergence, dosage 80 g/ha): 30%; Herbicidal action against ALOMY ([8]; pre-emergence, dosage 80 g/ha): 30%; Herbicidal action against ALOMY ([8]; pre-emergence, dosage 320 g/ha): 60%; Herbicidal action against AVEFA ([14]; dosage 80 g/ha): 10 10%; Herbicidal action against AVEFA ([14]; dosage 320 g/ha): 10 10%; Herbicidal action against ECHCG ([9]; pre-emergence, dosage 80 g/ha): 30%
Cc1ccc2c(c1)[C@H](Nc1ncc(C(C)O)c(C)n1)CCO2 (stereo partly shown) [Example 1.49] | 100 | 100 | 100 | 100 | 100 | Herbicidal action against ABUTH [16]: 80%; Herbicidal action against AMARE [17]: 90%; Herbicidal action against ECHCG [18]: 80%; Herbicidal action against STEME ([11]; dosage 320 g/ha): 90%
Cc1cc2c(s1)CCCC2Nc1ncc(C(C)O)c(C)n1 (stereo not shown) [drawing 17, reference compound] | – | – | – | – | – | Herbicidal efficacy against ABUTH [12]: 0; Herbicidal efficacy against POLCO [1]: 20; Herbicidal efficacy against LOLRI [13]: 0; Herbicidal efficacy against SETVI [7, 20]: 20; Herbicidal efficacy against ALOMY [8, 20]: 0; Herbicidal efficacy against ECHCG [9, 20]: 0; Herbicidal efficacy against PHBPU [15]: 0
Cc1ccc2c(c1)[C@H](Nc1ncc([C@H](C)O)c(N)n1)[C@@H](C)C2 (racemic) [drawing 8, reference compound] | – | – | – | – | – | Herbicidal action against HORMU ([6]; dosage 320 g/ha): 20%; Herbicidal action against PHBPU ([15]; dosage 320 g/ha): 20%
C=CCCC(C)(O)c1cnc(N[C@H]2c3cc(C)ccc3C[C@@H]2C)nc1 (stereo partly shown) [Example 1.28] | 100 | 100 | 100 | 100 | 100 | –
CC(C)(O)c1cnc(NC2CCOc3ccccc32)nc1 (racemic) [Example 1.9] | 100 | 100 | 100 | 100 | 100 | –
Cc1ccc2c(c1)[C@H](Nc1ncc(C(C)(C)O)c(N)n1)[C@@H](C)C2 [drawing 6, reference compound] | – | – | – | – | – | Herbicidal action against POLCO ([1]; dosage 80 g/ha): 0%; Herbicidal action against HORMU ([6]; dosage 80 g/ha): 20%; Herbicidal action against AMARE ([3]; dosage 80 g/ha): 40%; Herbicidal action against PHBPU ([15]; dosage 80 g/ha): 0%; Herbicidal action against PHBPU ([15]; dosage 320 g/ha): 0%
Cc1ccc2c(c1)[C@H](Nc1ncc(C(C)(C#N)O[Si](C)(C)C)cn1)[C@@H](C)C2 (stereo partly shown) [Example 1.16] | 100 | 100 | 100 | 100 | 100 | –
Cc1ccc2c(c1)[C@H](Nc1ncc([C@H](C)O)c(N)n1)[C@@H](C)C2 (racemic) [drawing 5, reference compound] | – | – | – | – | – | Herbicidal action against AVEFA ([14]; dosage 80 g/ha): 20%; Herbicidal action against AVEFA ([14]; dosage 320 g/ha): 60%
COc1cccc2c1CCCC2Nc1ncc(C(C)(C)O)c(C)n1 (racemic) [Example 1.44] | 100 | 100 | 100 | 100 | 100 | –
Cc1nc(N[C@@H]2CCc3ccccc32)ncc1C(C)O (stereo partly shown) [Example 1.47] | 100 | 100 | 100 | 100 | 100 | –
